From the NIST ThermoML archive (doi:10.1016/j.jct.2004.10.011)
± gives the expanded uncertainty stated by the source.

Details: Liquid, Vibrating tube method

CCC(=O)c1ccccc1 [ethyl phenyl ketone]
mass density [kg/m3]
Details	298.15 K	308.15 K	318.15 K	328.15 K
100 kPa	1005.3 ± 0.56	996.8 ± 0.56	988.3 ± 0.56	979.6 ± 0.56
2130 kPa	1006.4 ± 0.56	998 ± 0.56	989.6 ± 0.55	981.1 ± 0.55
4150 kPa	1007.5 ± 0.56	999.2 ± 0.56	990.9 ± 0.55	982.4 ± 0.55
6180 kPa	1008.7 ± 0.56	1000.4 ± 0.56	992.1 ± 0.55	983.7 ± 0.55
8210 kPa	1009.8 ± 0.56	1001.6 ± 0.56	993.3 ± 0.56	985 ± 0.55
10230 kPa	1010.9 ± 0.56	1002.8 ± 0.56	994.6 ± 0.56	986.2 ± 0.55
11250 kPa	1011.5 ± 0.56	1003.4 ± 0.56	995.2 ± 0.55	986.9 ± 0.55
12260 kPa	1012.1 ± 0.56	1003.9 ± 0.56	995.8 ± 0.56	987.5 ± 0.55
14290 kPa	1013.2 ± 0.56	1005.1 ± 0.56	997 ± 0.55	988.7 ± 0.55
16310 kPa	1014.3 ± 0.56	1006.2 ± 0.56	998.1 ± 0.56	990 ± 0.55
18340 kPa	1015.3 ± 0.56	1007.3 ± 0.56	999.3 ± 0.56	991.2 ± 0.55
20370 kPa	1016.4 ± 0.56	1008.4 ± 0.56	1000.4 ± 0.56	992.3 ± 0.55
22390 kPa	1017.5 ± 0.56	1009.5 ± 0.56	1001.6 ± 0.56	993.5 ± 0.55
24420 kPa	1018.5 ± 0.56	1010.6 ± 0.56	1002.7 ± 0.56	994.7 ± 0.55
26450 kPa	1019.5 ± 0.56	1011.7 ± 0.56	1003.8 ± 0.56	995.9 ± 0.56
28470 kPa	1020.5 ± 0.56	1012.8 ± 0.56	1004.9 ± 0.56	997.1 ± 0.55
29490 kPa	1021 ± 0.57	1013.2 ± 0.56	1005.5 ± 0.56	997.6 ± 0.55
30500 kPa	1021.6 ± 0.57	1013.8 ± 0.56	1006 ± 0.56	998.2 ± 0.55
32530 kPa	1022.5 ± 0.57	1014.8 ± 0.56	1007.1 ± 0.56	999.3 ± 0.55
34550 kPa	1023.5 ± 0.57	1015.8 ± 0.56	1008.2 ± 0.56	1000.4 ± 0.56
36580 kPa	1024.5 ± 0.57	1016.8 ± 0.56	1009.2 ± 0.56	1001.5 ± 0.56
38600 kPa	1025.5 ± 0.57	1017.9 ± 0.56	1010.3 ± 0.56	1002.6 ± 0.56
39620 kPa	1025.9 ± 0.57	1018.3 ± 0.56	1010.8 ± 0.56	1003.2 ± 0.56

Cc1ccccc1 [toluene]
mass density [kg/m3]
Details	298.15 K	308.15 K	318.15 K	328.15 K
100 kPa	862.1 ± 0.26	853 ± 0.27	843.8 ± 0.29	834.5 ± 0.3
2130 kPa	863.6 ± 0.27	854.5 ± 0.27	845.6 ± 0.28	836.5 ± 0.29
4150 kPa	865.2 ± 0.27	856.2 ± 0.28	847.3 ± 0.29	838.3 ± 0.29
6180 kPa	866.7 ± 0.27	857.8 ± 0.28	849 ± 0.29	840.1 ± 0.29
8210 kPa	868.2 ± 0.27	859.3 ± 0.28	850.6 ± 0.29	841.8 ± 0.3
10230 kPa	869.6 ± 0.28	860.9 ± 0.29	852.3 ± 0.29	843.5 ± 0.3
11250 kPa	870.4 ± 0.28	861.7 ± 0.29	853.1 ± 0.29	844.4 ± 0.3
12260 kPa	871.1 ± 0.28	862.4 ± 0.29	853.9 ± 0.29	845.2 ± 0.3
14290 kPa	872.5 ± 0.28	863.9 ± 0.29	855.4 ± 0.3	846.9 ± 0.31
16310 kPa	873.9 ± 0.29	865.4 ± 0.29	857 ± 0.3	848.6 ± 0.31
18340 kPa	875.3 ± 0.29	866.8 ± 0.3	858.5 ± 0.3	850.1 ± 0.31
20370 kPa	876.7 ± 0.29	868.2 ± 0.3	860 ± 0.31	851.7 ± 0.32
22390 kPa	878 ± 0.29	869.6 ± 0.3	861.5 ± 0.31	853.3 ± 0.32
24420 kPa	879.3 ± 0.3	871 ± 0.31	862.9 ± 0.32	854.8 ± 0.33
26450 kPa	880.6 ± 0.3	872.4 ± 0.31	864.4 ± 0.32	856.3 ± 0.33
28470 kPa	881.9 ± 0.31	873.8 ± 0.32	865.8 ± 0.33	857.8 ± 0.34
29490 kPa	882.5 ± 0.31	874.4 ± 0.31	866.5 ± 0.33	858.5 ± 0.34
30500 kPa	883.2 ± 0.31	875 ± 0.32	867.2 ± 0.33	859.3 ± 0.34
32530 kPa	884.4 ± 0.31	876.3 ± 0.32	868.5 ± 0.33	860.7 ± 0.34
34550 kPa	885.6 ± 0.32	877.6 ± 0.33	869.9 ± 0.34	862.1 ± 0.35
36580 kPa	886.8 ± 0.32	878.9 ± 0.33	871.2 ± 0.34	863.5 ± 0.35
38600 kPa	888 ± 0.32	880.1 ± 0.33	872.5 ± 0.35	864.9 ± 0.36
39620 kPa	888.6 ± 0.33	880.7 ± 0.35	873.2 ± 0.35	865.5 ± 0.35
